Measured values published in patent publication US11903959B2 (EMORY UNIVERSITY, priority 2017, dated 2024).
“And” between values parts separate entries of the source, which are not always exact repeats. Identical values can stand only once. Like-named read-outs stand apart in the source and are kept apart here.

What was measured:
Junin virus = assay: microbe, parasite or virus in culture; assay type: cell-based; settings: Mammarenavirus juninense, Vero, Vero cells
Lassa fever virus = assay: organism not typed; assay type: cell-based; settings: Vero
[1] = test system: Lymphocytic choriomeningitis virus; assay: microbe, parasite or virus in culture; assay type: cell-based; settings: Mammarenavirus choriomeningitidis, Vero
VEEV = assay: microbe, parasite or virus in culture; assay type: cell-based; settings: Venezuelan equine encephalitis virus
WEEV = assay: microbe, parasite or virus in culture; assay type: cell-based; settings: Western equine encephalitis virus
DENV2 = assay: microbe, parasite or virus in culture; assay type: cell-based; settings: Dengue virus
WNV = assay: microbe, parasite or virus in culture; assay type: cell-based; settings: West Nile virus, Vero 76
YFV = assay: microbe, parasite or virus in culture; assay type: cell-based; settings: Yellow fever virus, Vero 76
POWV = assay: microbe, parasite or virus in culture; assay type: cell-based; settings: Powassan virus, BHK, BHK cells
ZIKV = assay: microbe, parasite or virus in culture; assay type: cell-based; settings: Zika virus, Vero 76
RVFV = assay: microbe, parasite or virus in culture; assay type: cell-based; settings: Rift Valley fever virus, Vero
Punta Toro virus = assay: microbe, parasite or virus in culture; assay type: cell-based
Maporal virus = assay: microbe, parasite or virus in culture; assay type: cell-based
Heartland virus = assay: microbe, parasite or virus in culture; assay type: cell-based; settings: Vero
MERS = assay: microbe, parasite or virus in culture; assay type: cell-based, MERS coronavirus; settings: Middle East respiratory syndrome-related coronavirus, Vero C1008
SARS = assay: microbe, parasite or virus in culture; assay type: cell-based, SARS coronavirus; settings: Severe acute respiratory syndrome coronavirus
HCoV = assay: microbe, parasite or virus in culture; assay type: cell-based; settings: unidentified human coronavirus, Vero C1008
Flu A H7N9 (High Path) = assay: microbe, parasite or virus in culture; assay type: cell-based; settings: Influenza A virus, H7N9, MDCK, MDCK cells
Flu A H5N1 (High Path) = assay: microbe, parasite or virus in culture; assay type: cell-based; settings: Influenza A virus, H5N1, MDCK, MDCK cells
Flu A H5N1 (Low Path) = assay: microbe, parasite or virus in culture; assay type: cell-based; settings: Influenza A virus, H5N1, MDCK
Flu B = assay: microbe, parasite or virus in culture; assay type: cell-based; settings: Influenza B virus, MDCK
EBOV = assay: microbe, parasite or virus in culture; assay type: cell-based, Ebola virus; settings: Zaire ebolavirus, Vero
NV = assay: microbe, parasite or virus in culture; assay type: cell-based; settings: Norovirus, HG23
Enterovirus-71 = assay type: cell-based
Enterovirus-68 = assay type: cell-based
HRV-14 = assay: microbe, parasite or virus in culture; assay type: cell-based
RSV = assay: microbe, parasite or virus in culture; assay type: cell-based, respiratory syncytial virus
CEM cells = assay type: cell-based; settings: CEM cells (lowest of the range)
[2] = rat, in vivo, po, 50 mg/kg
[3] = cynomolgus monkey, in vivo, po; for AUC0->24 h / CL / Cmax / t1/2 / tmax: 0.4 mmol/kg
[4] = ICR (CD-1), mouse, in vivo
in vivo [5] = settings: female, DBA-1J, mouse, po
in vivo [6] = settings: dog, 140 mg/kg
[7] = Cytotoxicity (CC50) run with antiviral assays, MA-104 cells; settings: African green monkey, CC50, MA-104 cells, Parainfluenza and RSV table
[8] = Plasma pharmacokinetics in mice after a single dose of EIDD-2800; settings: ICR (CD-1), mouse, oral, 180 mg/kg

O=c1nc(NO)ccn1C1OC(CO)C(O)C1O (centres unmarked) [EIDD-1931, 1-(3,4-dihydroxy-5-(hydroxymethyl)tetrahydrofuran-2-yl)-4-(hydroxyamino)pyrimidin-2-one] showed an EC50 (Junin virus) of 18.4 µM, an EC50 (Lassa fever virus) of 4.04 µM and an EC90 [1] of 25.2 µM. It also gave an EC90 (VEEV; Vero 76) of 0.8 µM, an EC50 (VEEV; Vero 76, VEEV, Vero76 cells) of 1.28 µM and an EC50 (VEEV; Vero, VEE virus, Vero cell cytopathic effect (CPE) model) of 1 µM. It also gave an EC90 (WEEV; Vero 76) of under 1.28 µM, an EC50 (WEEV; Vero 76, WEEV, Vero76 cells) of 1.28 µM and an EC50 (WEEV; Vero, WEE virus, Vero cell cytopathic effect (CPE) model) of 1.36 µM. The EC50 (DENV2; DENV2, Vero 76) was 14 µM, the EC50 (DENV2; DENV2, Vero 76, DENV2, Vero76 cells) was 12.8 µM and the EC50 (WNV) was over 400 µM. For the same molecule, the EC90 (YFV) was 26 µM, the EC50 (POWV) was 11.2 µM and the EC90 (ZIKV) was 2.36 µM. It also gave an EC90 (RVFV) of 1 µM, an EC50 (RVFV; RVFV, Vero cells) of 1.68 µM and an EC50 (Punta Toro virus) of 20.4 µM. It also gave an EC50 (Punta Toro virus; Punta Toro virus, Vero 76) of 20 µM, an EC50 (Maporal virus) of over 124 µM and an EC50 (Maporal virus; Maporal virus, Vero 76) of 84 µM. For the same molecule, the EC90 (Heartland virus) was 7.84 µM, the EC50 (MERS) was under 0.8 µM and the EC90 (MERS) was under 0.8 µM. For the same molecule, the EC90 (SARS; Vero 76) was 0.56 µM, the EC90 (SARS; Vero C1008) was under 0.8 µM and the EC50 (SARS; Vero C1008, SARS, Vero E6 cells) was under 0.8 µM. For the same molecule, the EC50 (HCoV) was under 0.4 µM, the EC50 (Flu A H7N9 (High Path)) was over 48 µM and the EC50 (Flu A H5N1 (High Path)) was over 88 µM. For the same molecule, the EC50 (Flu A H5N1 (Low Path)) was 1.28 µM, the EC50 (Flu B) was under 0.4 µM and the EC50 (EBOV) was 4.7 µM. The EC90 (EBOV) was 25 µM, the EC50 (NV) was over 100 µM and the EC90 (NV) was over 100 µM. The EC50 (Enterovirus-71) was 3.44 µM and 3.36 µM, the EC50 (Enterovirus-68) was 1.28 µM and 1.16 µM and the EC50 (HRV-14) was 1.36 µM. For the same molecule, the EC50 (HRV-14; Rhinovirus B, HRV14) was 1.28 µM, the EC50 (RSV) was 27.6 µM and the EC50 (RSV; human respiratory syncytial virus, MA104) was 14 µM. The selectivity index (CEM cells) was 8, the “calculated bioavailability (% F)” value ([2]; male, Sprague-Dawley (SD)) was 28% and the tissue distribution [2] was “well distributed into all tissues tested”. For the same molecule, the bioavailability [3] was “low bioavailability”, the F ([3]; female) was about 3% and the “AUC0->24 h” value ([3]; female) was 7.21 ± 4.21 µM·h. It also gave a CL ([3]; female) of 1100 ± 527 mL/min/kg, a Cmax ([3]; female) of 3.31 ± 1.99 µM and a t1/2 ([3]; female) of 0.78 ± 0.2 h. For the same molecule, the tmax ([3]; female) was 0.87 ± 0.75 h, the “AUC0->24 h” value ([3]; male) was 5.75 ± 1.99 µM·h and the CL ([3]; male) was 1170 ± 312 mL/min/kg. It also gave a Cmax ([3]; male) of 3.31 ± 1.82 µM, a t1/2 ([3]; male) of 1.2 ± 1.2 h and a tmax ([3]; male) of 0.75 ± 0.28 h. It also gave a t1/2 ([4]; 15 mg/kg) of 2.9 h, a t1/2 ([4]; 225 mg/kg) of 4.2 h and an AUCinf ([4]; 750 mg/kg) of 228.9 µM·h. For the same molecule, the “Brain Cmax” value ([4]; 750 mg/kg) was 18.8 nmol/g, the t1/2 ([4]; 750 mg/kg) was 5.2 h and the “AUC0->t” value (Vero cells) was 228.6 pmol · h/M cells. For the same molecule, the half-life (in vivo [5]) was 4.1 to 4.7 h, the Cmax (in vivo [5]; 30 mg/kg) was 3000 ng/mL and the Cmax (in vivo [5]; 100 mg/kg) was 7700 ng/mL. For the same molecule, the Cmax (in vivo [5]; 300 mg/kg) was 11700 ng/mL, the tmax (in vivo [5]; 300 mg/kg) was 0.25 to 0.5 h and the Cmax (in vivo [6]) was 113 ± 21.1 µM. For the same molecule, the half-life (in vivo [6]) was 4.8 ± 1 h, the CC50 [7] was 272 µM and the AUC(0-inf) [8] was 42.5 µM·h. It also gave a Cmax [8] of 11.4 µM and a tmax [8] of 0.5 h.
